The kinase profiling compilation of Christmann-Franck et al. (2016)

Legend:
HIPK1 (human) = HIPK1 (human) (UniProt Q86Z02)
DYRK3 (human) = DYRK3 (human) (UniProt O43781)
PKN2 (human) = PKN2 (human) (UniProt Q16513)
CDK2 CCNA2 (human) = CDK2 CCNA2 (human) (UniProt P20248+P24941)
[1] = system: AKT2 (human), P31751 [S474D]
MAP3K11 (human) = MAP3K11 (human) (UniProt Q16584)
LCK (mouse) = conditions: accession and sequence are those of the human protein
RIPK2 (human) = RIPK2 (human) (UniProt O43353)
BRSK1 (human) = BRSK1 (human) (UniProt Q8TDC3); conditions: compound 10.0 µM
MKNK2 (human) = MKNK2 (human) (UniProt Q9HBH9)
MST4 (human) = MST4 (human) (UniProt Q9P289)
Sequence of MST4 (human) (Q9P289 whole entry, looked up): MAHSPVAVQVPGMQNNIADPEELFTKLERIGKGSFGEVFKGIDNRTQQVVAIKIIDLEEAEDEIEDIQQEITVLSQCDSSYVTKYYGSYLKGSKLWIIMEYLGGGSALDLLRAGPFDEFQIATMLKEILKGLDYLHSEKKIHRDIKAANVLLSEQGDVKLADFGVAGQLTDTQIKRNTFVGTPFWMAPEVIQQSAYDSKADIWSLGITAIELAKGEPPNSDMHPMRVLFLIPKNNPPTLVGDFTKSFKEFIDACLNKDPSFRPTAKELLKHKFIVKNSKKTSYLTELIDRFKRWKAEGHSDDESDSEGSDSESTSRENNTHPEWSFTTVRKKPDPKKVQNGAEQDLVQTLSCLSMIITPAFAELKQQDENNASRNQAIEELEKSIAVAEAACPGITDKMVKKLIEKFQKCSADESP

MAPKAPK5 (human) = MAPKAPK5 (human) (UniProt Q8IW41)
Sequence of MAPKAPK5 (human) (Q8IW41 whole entry, looked up): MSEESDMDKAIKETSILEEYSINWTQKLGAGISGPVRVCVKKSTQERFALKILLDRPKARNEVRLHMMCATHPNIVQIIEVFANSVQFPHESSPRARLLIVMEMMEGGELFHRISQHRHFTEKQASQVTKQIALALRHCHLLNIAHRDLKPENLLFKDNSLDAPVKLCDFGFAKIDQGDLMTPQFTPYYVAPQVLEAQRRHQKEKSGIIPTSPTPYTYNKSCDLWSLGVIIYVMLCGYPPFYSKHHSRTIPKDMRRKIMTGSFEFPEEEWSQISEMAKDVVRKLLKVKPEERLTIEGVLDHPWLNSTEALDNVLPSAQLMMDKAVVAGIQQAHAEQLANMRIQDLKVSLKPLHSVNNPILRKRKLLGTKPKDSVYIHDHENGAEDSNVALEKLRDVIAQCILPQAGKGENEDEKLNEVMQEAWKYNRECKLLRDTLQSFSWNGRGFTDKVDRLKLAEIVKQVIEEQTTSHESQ

FGFR1 (human) = FGFR1 (human) (UniProt P11362)
Sequence of FGFR1 (human) (P11362 whole entry, looked up): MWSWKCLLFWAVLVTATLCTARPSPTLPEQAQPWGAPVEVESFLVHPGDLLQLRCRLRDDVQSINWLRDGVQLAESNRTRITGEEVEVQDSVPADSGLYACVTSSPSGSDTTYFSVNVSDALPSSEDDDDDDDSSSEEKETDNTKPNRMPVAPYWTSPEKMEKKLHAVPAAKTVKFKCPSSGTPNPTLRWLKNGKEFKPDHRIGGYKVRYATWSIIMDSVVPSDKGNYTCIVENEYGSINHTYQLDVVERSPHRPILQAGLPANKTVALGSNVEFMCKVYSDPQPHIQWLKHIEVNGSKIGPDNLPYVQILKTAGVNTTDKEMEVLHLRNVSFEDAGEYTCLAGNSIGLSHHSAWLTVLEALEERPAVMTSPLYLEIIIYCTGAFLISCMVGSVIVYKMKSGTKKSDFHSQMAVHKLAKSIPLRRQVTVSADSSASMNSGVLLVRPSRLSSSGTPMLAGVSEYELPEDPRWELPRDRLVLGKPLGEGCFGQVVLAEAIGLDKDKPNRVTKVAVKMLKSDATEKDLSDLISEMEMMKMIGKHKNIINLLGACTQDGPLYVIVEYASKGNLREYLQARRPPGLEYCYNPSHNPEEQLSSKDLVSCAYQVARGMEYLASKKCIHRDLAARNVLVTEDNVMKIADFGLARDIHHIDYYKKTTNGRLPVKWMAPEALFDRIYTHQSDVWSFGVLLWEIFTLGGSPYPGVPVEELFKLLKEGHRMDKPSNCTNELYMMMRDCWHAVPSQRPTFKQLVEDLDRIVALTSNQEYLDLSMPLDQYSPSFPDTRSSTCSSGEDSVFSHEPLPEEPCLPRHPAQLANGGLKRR

MAPK1 (human) = MAPK1 (human) (UniProt P28482)
Sequence of MAPK1 (human) (P28482 whole entry, looked up): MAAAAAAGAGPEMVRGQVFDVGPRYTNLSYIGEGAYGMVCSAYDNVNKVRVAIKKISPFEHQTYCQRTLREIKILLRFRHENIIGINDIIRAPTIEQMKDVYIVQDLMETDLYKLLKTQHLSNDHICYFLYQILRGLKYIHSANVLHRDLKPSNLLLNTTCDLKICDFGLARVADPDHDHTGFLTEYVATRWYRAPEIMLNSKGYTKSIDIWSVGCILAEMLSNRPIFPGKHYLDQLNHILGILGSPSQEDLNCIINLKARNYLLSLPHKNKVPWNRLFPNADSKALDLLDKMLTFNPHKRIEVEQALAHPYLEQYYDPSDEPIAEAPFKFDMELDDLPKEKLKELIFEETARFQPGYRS

SRC (human) = SRC (human) (UniProt P12931)
Sequence of SRC (human) (P12931 whole entry, looked up): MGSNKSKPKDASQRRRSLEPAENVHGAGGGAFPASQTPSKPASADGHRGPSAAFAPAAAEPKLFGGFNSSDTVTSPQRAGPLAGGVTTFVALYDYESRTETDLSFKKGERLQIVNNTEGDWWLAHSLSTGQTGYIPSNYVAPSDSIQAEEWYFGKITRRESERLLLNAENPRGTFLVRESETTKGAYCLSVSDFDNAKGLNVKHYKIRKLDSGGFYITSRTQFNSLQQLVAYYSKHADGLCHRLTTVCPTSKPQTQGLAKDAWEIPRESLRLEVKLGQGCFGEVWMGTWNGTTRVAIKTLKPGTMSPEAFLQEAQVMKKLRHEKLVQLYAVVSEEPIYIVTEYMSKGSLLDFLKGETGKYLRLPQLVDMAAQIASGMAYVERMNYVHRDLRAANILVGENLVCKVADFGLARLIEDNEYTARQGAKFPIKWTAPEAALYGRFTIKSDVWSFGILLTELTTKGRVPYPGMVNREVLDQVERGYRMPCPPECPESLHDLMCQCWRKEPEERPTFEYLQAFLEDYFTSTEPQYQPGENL

MAPK3 (human) = MAPK3 (human) (UniProt P27361)
Sequence of MAPK3 (human) (P27361 whole entry, looked up): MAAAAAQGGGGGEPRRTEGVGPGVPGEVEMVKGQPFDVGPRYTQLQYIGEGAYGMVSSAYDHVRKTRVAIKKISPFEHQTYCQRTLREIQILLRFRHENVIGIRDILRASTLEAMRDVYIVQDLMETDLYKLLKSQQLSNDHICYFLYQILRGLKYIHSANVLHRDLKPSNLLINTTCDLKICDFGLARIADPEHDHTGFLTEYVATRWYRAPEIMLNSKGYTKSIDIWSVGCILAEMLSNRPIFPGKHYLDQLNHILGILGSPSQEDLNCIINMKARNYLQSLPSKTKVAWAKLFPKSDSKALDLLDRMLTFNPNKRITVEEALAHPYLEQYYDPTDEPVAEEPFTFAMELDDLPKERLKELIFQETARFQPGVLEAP

RPS6KA3 KD1 KD2 (human) = RPS6KA3 KD1 KD2 (human) (UniProt P51812)
MINK1 (human) = MINK1 (human) (UniProt Q8N4C8)
HIPK3 (human) = HIPK3 (human) (UniProt Q9H422)
DYRK1A (human) = DYRK1A (human) (UniProt Q13627)
NUAK1 (human) = NUAK1 (human) (UniProt O60285)
Sequence of NUAK1 (human) (O60285 whole entry, looked up): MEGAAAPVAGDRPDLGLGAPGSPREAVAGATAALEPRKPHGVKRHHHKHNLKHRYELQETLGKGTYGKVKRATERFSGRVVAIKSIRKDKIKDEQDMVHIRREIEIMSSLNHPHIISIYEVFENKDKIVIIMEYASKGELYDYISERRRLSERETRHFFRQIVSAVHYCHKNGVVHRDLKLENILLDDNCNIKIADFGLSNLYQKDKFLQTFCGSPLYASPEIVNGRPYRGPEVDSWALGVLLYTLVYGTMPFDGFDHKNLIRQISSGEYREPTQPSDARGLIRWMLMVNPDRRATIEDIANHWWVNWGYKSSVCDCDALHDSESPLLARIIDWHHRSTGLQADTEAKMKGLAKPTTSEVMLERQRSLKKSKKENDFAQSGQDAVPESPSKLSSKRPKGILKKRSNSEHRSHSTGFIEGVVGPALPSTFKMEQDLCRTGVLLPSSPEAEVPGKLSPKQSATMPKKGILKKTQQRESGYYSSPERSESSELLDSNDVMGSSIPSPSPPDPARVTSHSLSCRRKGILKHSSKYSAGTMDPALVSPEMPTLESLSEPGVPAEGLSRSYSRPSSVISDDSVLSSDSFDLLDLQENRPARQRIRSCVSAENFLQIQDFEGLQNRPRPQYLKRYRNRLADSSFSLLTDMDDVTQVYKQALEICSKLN

NEK6 (human) = NEK6 (human) (UniProt Q9HC98)
Sequence of NEK6 (human) (Q9HC98 whole entry, looked up): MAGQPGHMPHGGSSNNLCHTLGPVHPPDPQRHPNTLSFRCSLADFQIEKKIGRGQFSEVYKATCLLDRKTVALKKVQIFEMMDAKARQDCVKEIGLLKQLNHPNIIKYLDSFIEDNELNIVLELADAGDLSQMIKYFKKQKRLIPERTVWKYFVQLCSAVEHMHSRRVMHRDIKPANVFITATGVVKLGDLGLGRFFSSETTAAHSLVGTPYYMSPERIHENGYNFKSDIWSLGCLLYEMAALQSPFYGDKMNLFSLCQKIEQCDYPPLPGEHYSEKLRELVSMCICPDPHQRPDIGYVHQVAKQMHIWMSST

TTK (human) = TTK (human) (UniProt P33981)
[2] = system: ABL1 (human), P00519 [E255K]; assay: KINOMEscan competition binding; conditions: compound 10.0 µM
[3] = system: PIK3CA (human), P42336 [H1047Y]; assay: KINOMEscan competition binding; conditions: compound 10.0 µM
[4] = system: EGFR (human), P00533 [746-750 del]; assay: KINOMEscan competition binding; conditions: compound 10.0 µM
PIK3CG (human) = PIK3CG (human) (UniProt P48736); assay: KINOMEscan competition binding; conditions: compound 10.0 µM
[5] = system: KIT (human), P10721 [V559D/V654A]; assay: KINOMEscan competition binding; conditions: compound 10.0 µM
[6] = system: EGFR (human), P00533 [L861Q]; assay: KINOMEscan competition binding; conditions: compound 10.0 µM
PIK3CA (human) = PIK3CA (human) (UniProt P42336); assay: KINOMEscan competition binding; conditions: compound 10.0 µM
MARK2 (human) = MARK2 (human) (UniProt Q7KZI7); assay: KINOMEscan competition binding; conditions: compound 10.0 µM
[7] = system: EGFR (human), P00533 [G719S]; assay: KINOMEscan competition binding; conditions: compound 10.0 µM
[8] = system: EGFR (human), P00533 [G719C]; assay: KINOMEscan competition binding; conditions: compound 10.0 µM
[9] = system: EGFR (human), P00533 [P753S; 747-752 del]; assay: KINOMEscan competition binding; conditions: compound 10.0 µM
[10] = system: ABL1 (human), P00519 [Y253F]; assay: KINOMEscan competition binding; conditions: compound 10.0 µM

Sequence of PKN2 (human) (Q16513 whole entry, looked up): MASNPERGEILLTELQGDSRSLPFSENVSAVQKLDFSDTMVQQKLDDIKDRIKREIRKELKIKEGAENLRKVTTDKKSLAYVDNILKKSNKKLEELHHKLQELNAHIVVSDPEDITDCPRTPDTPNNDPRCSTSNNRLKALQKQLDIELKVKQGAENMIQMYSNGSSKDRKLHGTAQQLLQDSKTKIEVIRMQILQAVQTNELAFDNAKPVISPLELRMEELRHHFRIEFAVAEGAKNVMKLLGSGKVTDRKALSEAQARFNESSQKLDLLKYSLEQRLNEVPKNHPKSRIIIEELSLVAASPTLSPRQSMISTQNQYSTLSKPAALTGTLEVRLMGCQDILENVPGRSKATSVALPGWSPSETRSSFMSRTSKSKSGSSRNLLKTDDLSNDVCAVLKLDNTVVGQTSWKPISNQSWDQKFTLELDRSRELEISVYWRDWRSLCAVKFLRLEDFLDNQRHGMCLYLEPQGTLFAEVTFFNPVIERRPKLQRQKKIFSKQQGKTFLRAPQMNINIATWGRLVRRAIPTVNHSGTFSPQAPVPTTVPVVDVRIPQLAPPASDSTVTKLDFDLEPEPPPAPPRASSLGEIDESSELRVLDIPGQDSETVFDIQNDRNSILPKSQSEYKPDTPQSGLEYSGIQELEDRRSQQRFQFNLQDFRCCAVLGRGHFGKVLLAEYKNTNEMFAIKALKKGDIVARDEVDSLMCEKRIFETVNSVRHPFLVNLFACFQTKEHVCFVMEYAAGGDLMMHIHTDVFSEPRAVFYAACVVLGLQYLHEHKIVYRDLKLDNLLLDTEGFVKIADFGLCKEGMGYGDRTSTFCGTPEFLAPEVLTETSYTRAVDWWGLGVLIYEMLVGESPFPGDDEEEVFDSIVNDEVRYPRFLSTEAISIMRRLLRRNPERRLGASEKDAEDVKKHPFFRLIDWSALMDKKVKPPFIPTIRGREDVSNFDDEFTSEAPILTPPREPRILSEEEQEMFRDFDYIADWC

## COC(=O)Nc1ccc(-c2nc(N3CCOCC3)c3cnn(C4CCN(C(=O)OC)CC4)c3n2)cc1
HIPK1 (human); compound 1.0 µM
  per cent of control: 85%
HIPK1 (human); compound 10.0 µM
  per cent of control: 89%
DYRK3 (human); compound 1.0 µM
  per cent of control: 84%
DYRK3 (human); compound 10.0 µM
  per cent of control: 77%
PKN2 (human); compound 1.0 µM
  per cent of control: 117%
PKN2 (human); compound 10.0 µM
  per cent of control: 101%
CDK2 CCNA2 (human); compound 1.0 µM
  per cent of control: 111%
CDK2 CCNA2 (human); compound 10.0 µM
  per cent of control: 104%
[1]; compound 1.0 µM
  per cent of control: 102%
[1]; compound 10.0 µM
  per cent of control: 89%
MAP3K11 (human); compound 1.0 µM
  per cent of control: 92%
MAP3K11 (human); compound 10.0 µM
  per cent of control: 106%
LCK (mouse); compound 1.0 µM
  per cent of control: 100%
LCK (mouse); compound 10.0 µM
  per cent of control: 91%
RIPK2 (human); compound 1.0 µM
  per cent of control: 94%
RIPK2 (human); compound 10.0 µM
  per cent of control: 72%
BRSK1 (human)
  per cent of control: 94%
MKNK2 (human); compound 1.0 µM
  per cent of control: 115%
MKNK2 (human); compound 10.0 µM
  per cent of control: 93%
MST4 (human); compound 1.0 µM
  per cent of control: 88%
MST4 (human); compound 10.0 µM
  per cent of control: 82%
MAPKAPK5 (human); compound 1.0 µM
  per cent of control: 98%
MAPKAPK5 (human); compound 10.0 µM
  per cent of control: 74%
FGFR1 (human); compound 1.0 µM
  per cent of control: 95%
FGFR1 (human); compound 10.0 µM
  per cent of control: 109%
MAPK1 (human); compound 1.0 µM
  per cent of control: 109%
MAPK1 (human); compound 10.0 µM
  per cent of control: 108%
SRC (human); compound 1.0 µM
  per cent of control: 90%
SRC (human); compound 10.0 µM
  per cent of control: 67%
MAPK3 (human); compound 1.0 µM
  per cent of control: 90%
MAPK3 (human); compound 10.0 µM
  per cent of control: 97%
RPS6KA3 KD1 KD2 (human); compound 1.0 µM
  per cent of control: 88%
RPS6KA3 KD1 KD2 (human); compound 10.0 µM
  per cent of control: 87%
MINK1 (human); compound 1.0 µM
  per cent of control: 100%
MINK1 (human); compound 10.0 µM
  per cent of control: 100%
HIPK3 (human); compound 1.0 µM
  per cent of control: 112%
HIPK3 (human); compound 10.0 µM
  per cent of control: 85%
DYRK1A (human); compound 1.0 µM
  per cent of control: 111%
DYRK1A (human); compound 10.0 µM
  per cent of control: 90%
NUAK1 (human); compound 1.0 µM
  per cent of control: 94%
NUAK1 (human); compound 10.0 µM
  per cent of control: 82%
NEK6 (human); compound 1.0 µM
  per cent of control: 96%
NEK6 (human); compound 10.0 µM
  per cent of control: 87%
TTK (human); compound 1.0 µM
  per cent of control: 91%
TTK (human); compound 10.0 µM
  per cent of control: 93%
[2]
  kinase still bound, per cent of control: 100%
[3]
  kinase still bound, per cent of control: 7.8%
[4]
  kinase still bound, per cent of control: 100%
PIK3CG (human)
  kinase still bound, per cent of control: 78%
[5]
  kinase still bound, per cent of control: 100%
[6]
  kinase still bound, per cent of control: 100%
PIK3CA (human)
  kinase still bound, per cent of control: 5.4%
MARK2 (human)
  kinase still bound, per cent of control: 100%
[7]
  kinase still bound, per cent of control: 95%
[8]
  kinase still bound, per cent of control: 100%
[9]
  kinase still bound, per cent of control: 86%
[10]
  kinase still bound, per cent of control: 90%
